The NIST ThermoML archive (doi:10.1016/j.jct.2016.09.030)

Assay: xn = mol fraction of the nth substance listed
Settings: 100 kPa, Liquid; for viscosity: Concentric cylinders viscometry; for mass density: Vibrating tube method

CCCCCCCC(=O)OCC [ethyl octanoate] + CC(C)CCO
Settings	mass density [kg/m3]	viscosity [mPa·s]
288.15 K, x1 = 0.1	822.09	3.559
288.15 K, x1 = 0.2001	830.4	2.806
288.15 K, x1 = 0.3	837.58	2.382
288.15 K, x1 = 0.4	843.9	2.117
288.15 K, x1 = 0.5001	849.54	1.951
288.15 K, x1 = 0.5999	854.63	1.856
288.15 K, x1 = 0.7003	859.29	1.759
288.15 K, x1 = 0.7998	863.5	1.716
288.15 K, x1 = 0.9001	867.37	1.687
288.15 K, x1 = 1	870.88	1.686
293.15 K, x1 = 0.1	818.23	3.06
293.15 K, x1 = 0.2001	826.44	2.439
293.15 K, x1 = 0.3	833.53	2.11
293.15 K, x1 = 0.4	839.78	1.891
293.15 K, x1 = 0.5001	845.38	1.752
293.15 K, x1 = 0.5999	850.42	1.673
293.15 K, x1 = 0.7003	855.04	1.593
293.15 K, x1 = 0.7998	859.23	1.557
293.15 K, x1 = 0.9001	863.07	1.534
293.15 K, x1 = 1	866.58	1.537
298.15 K, x1 = 0.1	814.36	2.684
298.15 K, x1 = 0.2001	822.46	2.177
298.15 K, x1 = 0.3	829.47	1.885
298.15 K, x1 = 0.4	835.66	1.702
298.15 K, x1 = 0.5001	841.2	1.586
298.15 K, x1 = 0.5999	846.2	1.518
298.15 K, x1 = 0.7003	850.78	1.451
298.15 K, x1 = 0.7998	854.94	1.422
298.15 K, x1 = 0.9001	858.77	1.404
298.15 K, x1 = 1	862.28	1.41
303.15 K, x1 = 0.1	810.47	2.351
303.15 K, x1 = 0.2001	818.46	1.936
303.15 K, x1 = 0.3	825.39	1.693
303.15 K, x1 = 0.4	831.52	1.537
303.15 K, x1 = 0.5001	837.01	1.44
303.15 K, x1 = 0.5999	841.96	1.385
303.15 K, x1 = 0.7003	846.52	1.327
303.15 K, x1 = 0.7998	850.66	1.305
303.15 K, x1 = 0.9001	854.47	1.292
303.15 K, x1 = 1	857.98	1.298
308.15 K, x1 = 0.1	806.56	2.077
308.15 K, x1 = 0.2001	814.45	1.73
308.15 K, x1 = 0.3	821.3	1.527
308.15 K, x1 = 0.4	827.36	1.398
308.15 K, x1 = 0.5001	832.81	1.315
308.15 K, x1 = 0.5999	837.72	1.267
308.15 K, x1 = 0.7003	842.25	1.221
308.15 K, x1 = 0.7998	846.36	1.202
308.15 K, x1 = 0.9001	850.16	1.195
308.15 K, x1 = 1	853.68	1.2
313.15 K, x1 = 0.1	802.62	1.845
313.15 K, x1 = 0.2001	810.42	1.559
313.15 K, x1 = 0.3	817.19	1.389
313.15 K, x1 = 0.4	823.19	1.281
313.15 K, x1 = 0.5001	828.58	1.211
313.15 K, x1 = 0.5999	833.46	1.17
313.15 K, x1 = 0.7003	837.96	1.132
313.15 K, x1 = 0.7998	842.05	1.116
313.15 K, x1 = 0.9001	845.85	1.112
313.15 K, x1 = 1	849.37	1.118
318.15 K, x1 = 0.1	798.65	1.639
318.15 K, x1 = 0.2001	806.35	1.401
318.15 K, x1 = 0.3	813.06	1.258
318.15 K, x1 = 0.4	819	1.167
318.15 K, x1 = 0.5001	824.35	1.108
318.15 K, x1 = 0.5999	829.19	1.074
318.15 K, x1 = 0.7003	833.67	1.042
318.15 K, x1 = 0.7998	837.74	1.03
318.15 K, x1 = 0.9001	841.53	1.028
318.15 K, x1 = 1	845.06	1.035
323.15 K, x1 = 0.1	794.65	1.48
323.15 K, x1 = 0.2001	802.26	1.281
323.15 K, x1 = 0.3	808.9	1.157
323.15 K, x1 = 0.4	814.79	1.078
323.15 K, x1 = 0.5001	820.1	1.028
323.15 K, x1 = 0.5999	824.91	0.9986
323.15 K, x1 = 0.7003	829.36	0.9718
323.15 K, x1 = 0.7998	833.43	0.9628
323.15 K, x1 = 0.9001	837.21	0.9653
323.15 K, x1 = 1	840.74	0.9708

CCCCCCCC(=O)OCC [ethyl octanoate] + CC(C)CO
Settings	mass density [kg/m3]	viscosity [mPa·s]
288.15 K, x1 = 0.1001	817.82	3.229
288.15 K, x1 = 0.1999	827.81	2.537
288.15 K, x1 = 0.3	836.01	2.169
288.15 K, x1 = 0.4	843.08	1.977
288.15 K, x1 = 0.5	849.18	1.851
288.15 K, x1 = 0.5999	854.5	1.766
288.15 K, x1 = 0.6999	859.21	1.703
288.15 K, x1 = 0.7999	863.44	1.677
288.15 K, x1 = 0.9	867.3	1.677
288.15 K, x1 = 1	870.88	1.686
293.15 K, x1 = 0.1001	813.83	2.762
293.15 K, x1 = 0.1999	823.71	2.22
293.15 K, x1 = 0.3	831.83	1.921
293.15 K, x1 = 0.4	838.85	1.768
293.15 K, x1 = 0.5	844.91	1.661
293.15 K, x1 = 0.5999	850.21	1.593
293.15 K, x1 = 0.6999	854.9	1.543
293.15 K, x1 = 0.7999	859.12	1.523
293.15 K, x1 = 0.9	862.98	1.524
293.15 K, x1 = 1	866.58	1.537
298.15 K, x1 = 0.1001	809.81	2.416
298.15 K, x1 = 0.1999	819.58	1.961
298.15 K, x1 = 0.3	827.63	1.716
298.15 K, x1 = 0.4	834.6	1.592
298.15 K, x1 = 0.5	840.63	1.503
298.15 K, x1 = 0.5999	845.9	1.447
298.15 K, x1 = 0.6999	850.58	1.407
298.15 K, x1 = 0.7999	854.81	1.393
298.15 K, x1 = 0.9	858.67	1.393
298.15 K, x1 = 1	862.28	1.41
303.15 K, x1 = 0.1001	805.76	2.111
303.15 K, x1 = 0.1999	815.43	1.74
303.15 K, x1 = 0.3	823.41	1.541
303.15 K, x1 = 0.4	830.32	1.44
303.15 K, x1 = 0.5	836.32	1.364
303.15 K, x1 = 0.5999	841.57	1.321
303.15 K, x1 = 0.6999	846.25	1.289
303.15 K, x1 = 0.7999	850.48	1.278
303.15 K, x1 = 0.9	854.35	1.283
303.15 K, x1 = 1	857.98	1.298
308.15 K, x1 = 0.1001	801.68	1.854
308.15 K, x1 = 0.1999	811.24	1.554
308.15 K, x1 = 0.3	819.16	1.389
308.15 K, x1 = 0.4	826.03	1.307
308.15 K, x1 = 0.5	832	1.246
308.15 K, x1 = 0.5999	837.24	1.21
308.15 K, x1 = 0.6999	841.91	1.186
308.15 K, x1 = 0.7999	846.14	1.179
308.15 K, x1 = 0.9	850.03	1.184
308.15 K, x1 = 1	853.68	1.2
313.15 K, x1 = 0.1001	797.55	1.642
313.15 K, x1 = 0.1999	807.02	1.399
313.15 K, x1 = 0.3	814.88	1.264
313.15 K, x1 = 0.4	821.71	1.196
313.15 K, x1 = 0.5	827.66	1.148
313.15 K, x1 = 0.5999	832.89	1.119
313.15 K, x1 = 0.6999	837.56	1.1
313.15 K, x1 = 0.7999	841.8	1.096
313.15 K, x1 = 0.9	845.7	1.103
313.15 K, x1 = 1	849.37	1.118
318.15 K, x1 = 0.1001	793.38	1.453
318.15 K, x1 = 0.1999	802.76	1.254
318.15 K, x1 = 0.3	810.56	1.144
318.15 K, x1 = 0.4	817.36	1.089
318.15 K, x1 = 0.5	823.29	1.05
318.15 K, x1 = 0.5999	828.51	1.027
318.15 K, x1 = 0.6999	833.19	1.013
318.15 K, x1 = 0.7999	837.45	1.012
318.15 K, x1 = 0.9	841.37	1.02
318.15 K, x1 = 1	845.06	1.035
323.15 K, x1 = 0.1001	789.15	1.308
323.15 K, x1 = 0.1999	798.46	1.144
323.15 K, x1 = 0.3	806.21	1.052
323.15 K, x1 = 0.4	812.99	1.006
323.15 K, x1 = 0.5	818.9	0.975
323.15 K, x1 = 0.5999	824.13	0.9556
323.15 K, x1 = 0.6999	828.81	0.9463
323.15 K, x1 = 0.7999	833.08	0.9462
323.15 K, x1 = 0.9	837.02	0.9546
323.15 K, x1 = 1	840.74	0.9708
